Measured values: patent US6610504B1, “Methods of determining SAM-dependent methyltransferase activity using a mutant SAH hydrolase” (General Atomics, priority 2000, dated 2003)

Tests used:
CRBP = target: T1, CRBP (Homo sapiens, UniProt P09455); details: displacement of 1,8-ANS from CRBP; cited from earlier work
T1 sequence (P09455 1-135): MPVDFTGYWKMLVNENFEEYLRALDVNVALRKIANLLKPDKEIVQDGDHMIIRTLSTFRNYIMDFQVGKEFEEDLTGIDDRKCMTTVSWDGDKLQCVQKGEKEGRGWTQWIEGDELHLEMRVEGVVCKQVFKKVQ

[1] = target: T2, serum vitamin D binding protein (Homo sapiens, UniProt P02774); details: binding to serum vitamin D binding protein, Langmuir isotherm, nonlinear least-squares fit; cited from earlier work
T2 sequence (P02774 17-474): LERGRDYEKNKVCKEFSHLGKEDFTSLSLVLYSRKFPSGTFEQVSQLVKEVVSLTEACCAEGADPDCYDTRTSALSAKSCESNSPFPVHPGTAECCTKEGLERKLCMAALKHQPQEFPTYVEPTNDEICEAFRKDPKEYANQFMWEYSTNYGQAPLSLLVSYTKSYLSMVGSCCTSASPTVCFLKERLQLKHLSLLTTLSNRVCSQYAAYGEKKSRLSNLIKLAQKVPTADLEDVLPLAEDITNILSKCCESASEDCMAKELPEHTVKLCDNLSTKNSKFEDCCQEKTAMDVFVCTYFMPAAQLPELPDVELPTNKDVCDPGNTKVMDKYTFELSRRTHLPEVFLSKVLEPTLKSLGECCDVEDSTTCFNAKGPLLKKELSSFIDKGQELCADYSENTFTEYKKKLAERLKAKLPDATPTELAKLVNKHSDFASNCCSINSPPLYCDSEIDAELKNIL

KLBP = target: T3, KLBP (Mus musculus, UniProt Q05816); details: displacement of 1,8-ANS from KLBP; cited from earlier work
T3 sequence (Q05816 1-135): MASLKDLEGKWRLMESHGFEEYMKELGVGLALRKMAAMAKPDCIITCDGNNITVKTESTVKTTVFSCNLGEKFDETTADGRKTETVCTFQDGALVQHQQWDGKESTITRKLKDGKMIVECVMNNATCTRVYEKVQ

ALBP = target: T4, ALBP (Mus musculus, UniProt P04117); details: displacement of 1,8-ANS from ALBP, cited from earlier work; for Ki: read-out: apparent inhibitor constant (Ki)
T4 sequence (P04117 1-132): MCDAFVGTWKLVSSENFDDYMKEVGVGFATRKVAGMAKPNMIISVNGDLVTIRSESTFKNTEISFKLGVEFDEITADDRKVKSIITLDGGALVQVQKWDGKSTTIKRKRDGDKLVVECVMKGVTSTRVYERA

[2] = target: T5, cellular retinol-binding protein (CRBP) (Homo sapiens, UniProt P09455); details: read-out: apparent dissociation constant; probe binding to CRBP; cited from earlier work
T5 sequence (P09455 1-135): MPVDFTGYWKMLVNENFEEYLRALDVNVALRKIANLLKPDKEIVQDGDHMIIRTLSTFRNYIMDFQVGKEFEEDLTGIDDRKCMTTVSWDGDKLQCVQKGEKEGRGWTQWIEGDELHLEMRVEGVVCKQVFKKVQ

[3] = target: cellular retinoic acid-binding protein I (CRABPI) (Homo sapiens, UniProt P29762); details: read-out: apparent dissociation constant; probe binding to CRABPI; cited from earlier work
[4] = target: T6, keratinocyte lipid-binding protein (KLBP) (Mus musculus, UniProt Q05816); details: read-out: apparent dissociation constant (Kd); probe binding to KLBP; cited from earlier work
T6 sequence (Q05816 1-135): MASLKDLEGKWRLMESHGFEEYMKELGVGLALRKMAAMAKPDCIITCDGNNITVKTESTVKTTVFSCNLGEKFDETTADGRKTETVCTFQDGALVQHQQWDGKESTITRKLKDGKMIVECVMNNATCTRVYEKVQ

SAH hydrolase = target: T7, SAH hydrolase (Homo sapiens, UniProt P23526); assay: SAH hydrolase activity, hydrolytic direction (kinetic constants for SAH); assay type: biochemical; details: substrate SAH
T7 construct: made in house; host or cells: E. coli JM109, vector pKK223-3
Protocol: The assay of SAH hydrolase activity in the hydrolytic direction was performed as described in Yuan et al., J. Biol. Chem., 271:28008-28016, 1996). The assay measures the hydrolysis of SAH into Ado and Hcy. The reaction product Hcy was derivatized by thiol specific reagent DTNB for colometric determination at 412 nm. The assay for SAH hydrolase in the synthetic direction was measured by the formation of SAH from substrate Ado and Hcy using HPLC (see, Yuan et al., J. Biol. Chem., 268:17030-17037 (1993). One unit of the enzyme activity was defined as the amount of enzyme that can hydrolyze or synthesize 1 μmole of SAH/min/mg.
Mutant SAH hydrolase (e.g., F302S) was specifically fluorescence labels on Cys421, an non-essential cysteine residue which is located on the surface of the protein that is not involved in substrate binding and catalysis. Cys421 residue is readily accessible by thiol reactive molecules, and can be modified without effect the binding affinity of the enzyme. Thiol specific reactive probes such as 7-diethylamino-3(4′-maleimidylphenyl)-4-methylcoumarin (CPM) can specifically label protein thiols. Mutant SAH hydrolase (F302S) (0.5 mg/ml) in 50 mM phosphate buffer, pH 7.2, was incubated with 2 mM of adenine to protect other thiols in the substrate binding site, followed by addition of CPM to final concentration of 50 μM. The reaction mixture was incubated at room temperature for 30 min. followed by gel filtration on a size exclusion column (Sephacryl S-300, […]×60 cm) to remove adenine and excess CPM. The CPM-labeled F302S mutant SAH hydrolase (2 mg/ml) was kept in 50 mM phosphate buffer containing 20% glycerol at −20° C. The comparison of Km (SAH) and Kcat (SAH) for wild type and mutant F302S is shown below in Table 10.

T7 sequence (P23526 whole entry): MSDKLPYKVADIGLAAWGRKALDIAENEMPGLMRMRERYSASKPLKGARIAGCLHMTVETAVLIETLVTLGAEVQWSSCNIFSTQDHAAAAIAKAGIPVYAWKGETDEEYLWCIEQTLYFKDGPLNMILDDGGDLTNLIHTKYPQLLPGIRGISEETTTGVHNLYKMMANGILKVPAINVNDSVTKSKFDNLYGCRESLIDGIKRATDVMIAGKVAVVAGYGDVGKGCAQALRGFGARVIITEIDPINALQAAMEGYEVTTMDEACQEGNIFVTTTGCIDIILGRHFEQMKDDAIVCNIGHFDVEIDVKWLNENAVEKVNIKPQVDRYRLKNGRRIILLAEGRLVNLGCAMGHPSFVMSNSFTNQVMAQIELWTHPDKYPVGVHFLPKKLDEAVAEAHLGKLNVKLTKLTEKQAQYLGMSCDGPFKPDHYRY
cellular retinoic acid-binding protein I (CRABPI), sequence (P29762 whole entry, species assumed): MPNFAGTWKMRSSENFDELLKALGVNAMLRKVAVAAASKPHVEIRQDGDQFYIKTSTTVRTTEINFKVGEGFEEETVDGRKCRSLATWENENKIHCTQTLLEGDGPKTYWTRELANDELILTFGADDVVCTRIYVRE

For CC1=C(/C=C/C(C)=C/C=C/C(C)=C/C=O)C(C)(C)CCC1 [all-trans-retinal], the Ki (CRBP) is listed as 1700 nM.

In the case of vitamin D, the Kd [1] is given as 91700 nM.

In the case of CCCCCCCC/C=C\CCCCCCCC(=O)O [Oleic acid], the Ki (KLBP) is given as 420 nM and the Ki (ALBP) is given as 134 nM.

For CC1=C(/C=C/C(C)=C/C=C/C(C)=C/CO)C(C)(C)CCC1 [all-trans-retinol], the “bound by KLBP” value (KLBP) is given as “neither octanoic acid nor all-trans-retinol were bound” and the “displacement of the fluorophore from ALBP” value (ALBP) is given as “did not displace”.

For CCCCC/C=C\C/C=C\C/C=C\C/C=C\CCCC(=O)O [arachidonic acid], the Ki (KLBP) is given as 400 nM.

In the case of CC1=C(/C=C/C(C)=C/C=C/C(C)=C/C(=O)O)C(C)(C)CCC1 [all-trans-retinoic acid], the Ki (KLBP) is given as 3600 nM, the Ki (ALBP) is given as 870 nM and the Ki (CRBP) is given as 5300 nM.

In the case of O=S(=O)(O)c1cccc2cccc(Nc3ccccc3)c12 [1,8-ANS, 1-anilinonapthalene 8-sulfonic acid], the Kd [2] is given as 7700 nM, the Kd [3] is given as 25000 nM and the Kd [4] is given as 530 nM.

In the case of 25-hydroxyvitamin D, the Kd [1] is listed as 5590 nM.

In the case of CCCCCCCC(=O)O [octanoic acid], the “bound by KLBP” value (KLBP) is given as “neither octanoic acid nor all-trans-retinol were bound” and the “displacement of the fluorophore from ALBP” value (ALBP) is given as “did not displace”.

B1: wild type: Human placental SAH hydrolase, wild type, expressed in E. coli JM109 (protein, UniProt P23526 2-432, looked up)
Adenosylhomocysteinase: SDKLPYKVADIGLAAWGRKALDIAENEMPGLMRMRERYSASKPLKGARIAGCLHMTVETAVLIETLVTLGAEVQWSSCNIFSTQDHAAAAIAKAGIPVYAWKGETDEEYLWCIEQTLYFKDGPLNMILDDGGDLTNLIHTKYPQLLPGIRGISEETTTGVHNLYKMMANGILKVPAINVNDSVTKSKFDNLYGCRESLIDGIKRATDVMIAGKVAVVAGYGDVGKGCAQALRGFGARVIITEIDPINALQAAMEGYEVTTMDEACQEGNIFVTTTGCIDIILGRHFEQMKDDAIVCNIGHFDVEIDVKWLNENAVEKVNIKPQVDRYRLKNGRRIILLAEGRLVNLGCAMGHPSFVMSNSFTNQVMAQIELWTHPDKYPVGVHFLPKKLDEAVAEAHLGKLNVKLTKLTEKQAQYLGMSCDGPFKPDHYRY
In the case of B1, the “Kcat (SAH)” value (SAH hydrolase) is reported as 3.8 S^−1 and the Km (SAH hydrolase) is reported as 7.9 µM.

B2: F302S: Mutant human SAH hydrolase, Phe 302 to Ser (protein, UniProt P23526 2-432, looked up, variant F302S)
Adenosylhomocysteinase: SDKLPYKVADIGLAAWGRKALDIAENEMPGLMRMRERYSASKPLKGARIAGCLHMTVETAVLIETLVTLGAEVQWSSCNIFSTQDHAAAAIAKAGIPVYAWKGETDEEYLWCIEQTLYFKDGPLNMILDDGGDLTNLIHTKYPQLLPGIRGISEETTTGVHNLYKMMANGILKVPAINVNDSVTKSKFDNLYGCRESLIDGIKRATDVMIAGKVAVVAGYGDVGKGCAQALRGFGARVIITEIDPINALQAAMEGYEVTTMDEACQEGNIFVTTTGCIDIILGRHFEQMKDDAIVCNIGHSDVEIDVKWLNENAVEKVNIKPQVDRYRLKNGRRIILLAEGRLVNLGCAMGHPSFVMSNSFTNQVMAQIELWTHPDKYPVGVHFLPKKLDEAVAEAHLGKLNVKLTKLTEKQAQYLGMSCDGPFKPDHYRY
In the case of B2, the “Kcat (SAH)” value (SAH hydrolase) is reported as 0.1 S^−1 and the Km (SAH hydrolase) is reported as 1 µM.
